From PubChem BioAssay (NCI)
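Where inhibition never reached the appropriate level, the endpoint shown equals the highest concentration tested. Otherwise, values were interpolated linearly from a five-concentration, 48-hour dose response in 96-well plates. TGI: total growth inhibition.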

How the values were obtained:
Experiment in all cases: NCI anticancer screen, dose series, 48 h
[1] = test system: A549 NSCLC
[2] = test system: HCT-116 colon
[3] = test system: HCT-15 colon
[4] = test system: K-562 leukemia
[5] = test system: M14 melanoma
[6] = test system: MALME-3M melanoma
[7] = test system: MDA-MB-231 breast
[8] = test system: NCI-H226 lung
[9] = test system: NCI-H522 lung
[10] = test system: OVCAR-5 ovarian
[11] = test system: SF-539 CNS
[12] = test system: SK-MEL-2 melanoma
[13] = test system: SK-MEL-28 melanoma
[14] = test system: SK-MEL-5 melanoma
[15] = test system: SK-OV-3 ovarian
[16] = test system: SNB-19 CNS
[17] = test system: SNB-75 CNS
[18] = test system: UACC-62 melanoma
[19] = test system: HL-60(TB) leukemia

| SMILES | TGI [1] [µM] | TGI [2] [µM] | TGI [3] [µM] | TGI [4] [µM] | TGI [5] [µM] | TGI [6] [µM] | TGI [7] [µM] | TGI [8] [µM] | TGI [9] [µM] | TGI [10] [µM] | TGI [11] [µM] | TGI [12] [µM] | TGI [13] [µM] | TGI [14] [µM] | TGI [15] [µM] | TGI [16] [µM] | TGI [17] [µM] | TGI [18] [µM] | TGI [19] [µM] |
| --- | --- | --- | --- | --- | --- | --- | --- | --- | --- | --- | --- | --- | --- | --- | --- | --- | --- | --- | --- |
| COc1cc(C2SCC(=O)N2c2ccc(Oc3ccc(Cl)cc3)c(Cl)c2)cc(OC)c1OC (centres undefined) | 69.2 | 35.5 | > 100 | > 100 | 83.1 | 37.5 | 40.3 | 31.9 | 37.1 | 55.7 | 54.2 | 32.2 | 35 | 32.1 | 33.6 | > 100 | 31.3 | 30.9 | – |
| Cn1nc(S(N)(=O)=O)s/c1=N/C(N)=S | > 100 | > 100 | > 100 | > 100 | > 100 | > 100 | > 100 | > 100 | > 100 | > 100 | > 100 | > 100 | > 100 | > 100 | > 100 | > 100 | – | > 100 | > 100 |
| COc1ccc(C2C(C#N)=C(S)N(C3OC(CO)C(O)C(O)C3O)C(c3ccccc3)=C2C(C)=O)cc1 (centres undefined) | > 100 | > 100 | > 100 | > 100 | > 100 | > 100 | > 100 | > 100 | 88.9 | > 100 | > 100 | > 100 | > 100 | 60.7 | – | > 100 | 97 | > 100 | > 100 |
| O=C1c2cccc3cccc(c23)C(=O)N1CCCNOCCONCCCN1C(=O)c2cccc3cccc(c23)C1=O | > 100 | > 100 | > 100 | > 100 | > 100 | > 100 | > 100 | > 100 | – | > 100 | – | > 100 | > 100 | > 100 | > 100 | > 100 | > 100 | > 100 | > 100 |
| C=CC[C@@]1(C(=O)OC)[C@H](Sc2ccccc2)C1(C)C | > 100 | > 100 | > 100 | – | > 100 | 84.9 | > 100 | > 100 | 87.9 | > 100 | > 100 | 64.1 | > 100 | 44.3 | > 100 | > 100 | 80.8 | > 100 | 45.8 |
| Cn1c2ccccc2c2c3c(c4c5ccccc5n(C)c4c21)C(=O)c1ccccc1C3=O | > 100 | > 100 | > 100 | – | > 100 | 60 | 79.1 | > 100 | 68.2 | > 100 | 51.1 | > 100 | > 100 | > 100 | > 100 | 52.4 | > 100 | > 100 | > 100 |
| C[C@]12CC[C@H](O)CC1=CC[C@@H]1[C@@H]2CC[C@]2(C)/C(=N/OCCN3CCCC3)CC[C@@H]12 | – | 28.6 | 28.8 | 21.6 | – | 27.1 | 36.9 | 30 | 25.7 | 96.6 | 28.1 | 45.1 | 30.6 | 28 | – | 72.1 | 45 | 30.1 | 23 |
| CC(=Nc1ccncc1)C(C)=Nc1ccncc1 | > 100 | 83.9 | 27.5 | > 100 | 34.8 | 37.3 | 62.6 | > 100 | 35.3 | 31.9 | 35.1 | 45.1 | > 100 | 47.1 | > 100 | 68.5 | > 100 | – | 87.2 |
| COc1ccc(/C=C2\N=C(c3ccccc3)N(C3Nc4cc5c(cc4S3)NC(N3C(=O)/C(=C/c4ccc(OC)cc4)N=C3c3ccccc3)S5)C2=O)cc1 (centres undefined) | > 100 | > 100 | > 100 | > 100 | > 100 | – | > 100 | > 100 | 45.2 | > 100 | 29.2 | 97.5 | > 100 | > 100 | – | – | 94.2 | – | > 100 |
| Nc1cc(N2CCCC2)nc(=O)n1Cc1ccccc1 | > 100 | > 100 | > 100 | > 100 | > 100 | > 100 | > 100 | > 100 | > 100 | > 100 | > 100 | > 100 | – | > 100 | – | > 100 | > 100 | – | > 100 |
| O=C(NCc1ccc(Cl)cc1)c1cc2sccc2nc1C(F)(F)F | > 100 | > 100 | – | > 100 | > 100 | > 100 | > 100 | 50 | 95.2 | > 100 | 70 | > 100 | > 100 | > 100 | > 100 | 51.7 | – | > 100 | – |
| Cc1ccc(C(=O)/C(C#N)=C/Nc2c(C)n(C)n(-c3ccccc3)c2=O)cc1 | > 100 | > 100 | > 100 | > 100 | > 100 | > 100 | > 100 | > 100 | > 100 | > 100 | > 100 | > 100 | > 100 | > 100 | > 100 | > 100 | – | > 100 | > 100 |
| Cc1ccc(S(=O)(=O)c2c(O)c3ccccc3n(C)c2=O)cc1 | > 100 | > 100 | > 100 | > 100 | > 100 | > 100 | > 100 | > 100 | – | > 100 | > 100 | > 100 | > 100 | > 100 | > 100 | > 100 | > 100 | > 100 | > 100 |
